Legend:
[1] = target: T1, Amine oxidase [flavin-containing] A (Rattus norvegicus, UniProt P21396); assay: In vitro inhibitory activity against rat brain Monoamine oxidase A
T1 sequence (P21396 whole entry): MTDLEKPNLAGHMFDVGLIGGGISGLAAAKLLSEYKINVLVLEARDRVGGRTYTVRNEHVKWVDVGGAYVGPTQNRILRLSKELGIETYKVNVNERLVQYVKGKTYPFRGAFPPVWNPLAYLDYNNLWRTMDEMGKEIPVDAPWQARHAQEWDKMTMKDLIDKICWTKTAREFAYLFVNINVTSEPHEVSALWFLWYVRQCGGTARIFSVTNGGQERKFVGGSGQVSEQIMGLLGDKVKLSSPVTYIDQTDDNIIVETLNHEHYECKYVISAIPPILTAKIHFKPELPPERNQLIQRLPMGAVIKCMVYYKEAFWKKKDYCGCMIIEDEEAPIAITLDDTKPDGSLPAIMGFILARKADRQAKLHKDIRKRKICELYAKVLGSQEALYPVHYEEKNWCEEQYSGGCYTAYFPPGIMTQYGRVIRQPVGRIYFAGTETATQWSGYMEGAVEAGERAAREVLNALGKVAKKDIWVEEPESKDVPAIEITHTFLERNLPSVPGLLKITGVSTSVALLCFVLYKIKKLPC

[2] = target: T2, Amine oxidase [flavin-containing] B (Rattus norvegicus, UniProt P19643); assay: Compound was evaluated for the Inhibition of Monoamine oxidase B
T2 sequence (P19643 whole entry): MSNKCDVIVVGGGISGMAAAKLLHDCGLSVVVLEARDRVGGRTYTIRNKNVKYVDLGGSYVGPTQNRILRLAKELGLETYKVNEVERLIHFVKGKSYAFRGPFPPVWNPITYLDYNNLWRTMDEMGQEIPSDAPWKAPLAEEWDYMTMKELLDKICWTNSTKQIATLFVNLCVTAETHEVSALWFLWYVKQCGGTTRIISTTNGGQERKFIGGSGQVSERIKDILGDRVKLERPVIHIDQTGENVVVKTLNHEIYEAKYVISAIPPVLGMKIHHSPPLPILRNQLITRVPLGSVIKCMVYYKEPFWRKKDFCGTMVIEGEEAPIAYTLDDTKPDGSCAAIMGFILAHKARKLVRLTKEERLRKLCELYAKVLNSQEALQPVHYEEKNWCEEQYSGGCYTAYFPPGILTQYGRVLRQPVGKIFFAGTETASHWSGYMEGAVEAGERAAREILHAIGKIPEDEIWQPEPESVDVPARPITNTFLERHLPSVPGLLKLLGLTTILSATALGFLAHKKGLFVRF

[3] = Selectivity for the B form was estimated by the IC50(MAO A)/IC50(MAO B) ratio.
[4] = target: T2, Amine oxidase [flavin-containing] B; assay: In vitro inhibitory activity against rat brain Monoamine oxidase B
[5] = target: T2, Amine oxidase [flavin-containing] B; assay: Ex vivo inhibitory activity against rat brain monoamine oxidase (MAO) type B at a dose of 5 mg/kg administered orally at 24 hr; assay type: functional, organism-based; set-up: dose 5 mg/kg, route oral; conditions: po
[6] = target: T2, Amine oxidase [flavin-containing] B; assay: (§1) Ex vivo inhibitory activity against rat brain monoamine oxidase (MAO) type B at a dose of 5 mg/kg administered orally at 1 hr; conditions: po
[7] = target: T1, Amine oxidase [flavin-containing] A; assay: (§2) Ex vivo inhibitory activity against rat brain monoamine oxidase (MAO) type A at a dose of 5 mg/kg administered orally at 1 hr; assay type: organism-based; set-up: dose 5 mg/kg, route oral; conditions: po
[8] = target: T1, Amine oxidase [flavin-containing] A; assay: Ex vivo inhibitory activity against rat brain monoamine oxidase (MAO) type A at a dose of 5 mg/kg administered orally at 24 hr; assay type: functional, organism-based; set-up: dose 5 mg/kg, route oral; conditions: po
[9] = target: T1, Amine oxidase [flavin-containing] A; assay: Ex vivo inhibitory activity against rat brain monoamine oxidase (MAO) type A at a dose of 5 mg/kg administered orally at 8 hr; assay type: functional, organism-based; set-up: dose 5 mg/kg, route oral; conditions: po
[10] = target: T2, Amine oxidase [flavin-containing] B; assay: Inhibitory activity against monoamine oxidase (MAO) type B by reversibility test before dialysis at a concentration of 0.001 uM; conditions: read-out: Control
[11] = target: T2, Amine oxidase [flavin-containing] B; assay: Inhibitory activity against monoamine oxidase (MAO) type B by reversibility test after dialysis at a concentration of 0.001 uM; conditions: read-out: Control
[12] = target: T2, Amine oxidase [flavin-containing] B; assay: Ex vivo inhibitory activity against rat brain monoamine oxidase (MAO) type B at a dose of 5 mg/kg administered orally at 4 hr; assay type: functional, organism-based; set-up: dose 5 mg/kg, route oral; conditions: po
[13] = target: T1, Amine oxidase [flavin-containing] A; assay: Ex vivo inhibitory activity against rat brain monoamine oxidase (MAO) type A at a dose of 5 mg/kg administered orally at 4 hr; assay type: functional, organism-based; set-up: dose 5 mg/kg, route oral; conditions: po
[14] = target: T1, Amine oxidase [flavin-containing] A; assay: as §2; assay type: functional, organism-based; set-up: dose 5 mg/kg, route oral; conditions: po
[15] = target: T1, Amine oxidase [flavin-containing] A; assay: Ex vivo inhibitory activity against rat brain monoamine oxidase (MAO) type A at a dose of 5 mg/kg administered orally at 0.5 hr; assay type: functional, organism-based; set-up: dose 5 mg/kg, route oral; conditions: po
[16] = target: T2, Amine oxidase [flavin-containing] B; assay: Inhibitory activity against monoamine oxidase (MAO) type B by reversibility test before dialysis at a concentration of 0.1 uM; conditions: read-out: Control
[17] = target: T2, Amine oxidase [flavin-containing] B; assay: as §1; assay type: functional, organism-based; set-up: dose 5 mg/kg, route oral; conditions: po
[18] = target: T2, Amine oxidase [flavin-containing] B; assay: Inhibitory activity against monoamine oxidase (MAO) type B by reversibility test after dialysis at a concentration of 0.1 uM; conditions: read-out: Control
[19] = target: T2, Amine oxidase [flavin-containing] B; assay: Ex vivo inhibitory activity against rat brain monoamine oxidase (MAO) type B at a dose of 5 mg/kg administered orally at 0.5 hr; assay type: functional, organism-based; set-up: dose 5 mg/kg, route oral; conditions: po
[20] = target: T2, Amine oxidase [flavin-containing] B; assay: (§3) Compound was evaluated for inhibitory activity against monoamine oxidase (MAO) type B by reversibility test before dialysis at a concentration of 0.1 uM; assay type: functional; conditions: read-out: Control
[21] = target: T2, Amine oxidase [flavin-containing] B; assay: (§4) Compound was evaluated for inhibitory activity against monoamine oxidase (MAO) type B by reversibility test after dialysis at a concentration of 0.1 uM; assay type: functional; conditions: read-out: Control
[22] = target: T2, Amine oxidase [flavin-containing] B; assay: as §3; conditions: read-out: Control
[23] = target: T2, Amine oxidase [flavin-containing] B; assay: as §4; conditions: read-out: Control
[24] = target: T2, Amine oxidase [flavin-containing] B; assay: Compound was evaluated for inhibitory activity against monoamine oxidase (MAO) type B by reversibility test after dialysis at a concentration of 0.001 uM; conditions: read-out: Control
[25] = target: T2, Amine oxidase [flavin-containing] B; assay: Compound was evaluated for inhibitory activity against monoamine oxidase (MAO) type B by reversibility test before dialysis at a concentration of 0.001 uM; assay type: functional; conditions: read-out: Control

Row | SMILES | IC50 [1] | IC50 [4] | further results
1 | Cc1cccc(COc2ccc(-c3nnn(CCO)n3)cc2)c1 | > 100 µM |  | 
2 | N#CCCn1nc(-c2ccc(OCc3ccccc3)cc2)oc1=S |  |  | IC50 [2]: 0.0046 µM
3 | N#CCCCCCCn1nnc(-c2ccc(-c3ccccc3)cc2)n1 |  |  | Selectivity [3]: 8.5
4 | N#CCCn1nnc(-c2ccc([N+](=O)[O-])cc2)n1 | 18 µM | 13.4 µM | 
5 | Cc1ccccc1COc1ccc(-c2nnn(CCC#N)n2)cc1 | > 100 µM |  | 
6 | COc1cccc(COc2ccc(-c3nnn(CCO)n3)cc2)c1 | 80 µM |  | 
7 | O=[N+]([O-])c1ccc(-c2nnn(CCO)n2)cc1 | > 100 µM | > 100 µM | 
8 | OCCn1nnc(-c2ccc(OCc3ccc(Cl)cc3)cc2)n1 |  | 0.32 µM | 
9 | N#CCCCCn1nnc(-c2ccc(-c3ccccc3)cc2)n1 | 26 µM | 6 µM | 
10 | OCCn1nnc(-c2ccc(-c3ccccc3)cc2)n1 | 11 µM | 0.96 µM | 
11 | C#CCN(C)[C@H](C)Cc1ccccc1 [SELEGILINE] |  |  | inhibition at 5 mg/kg [5]: 81%; inhibition at 5 mg/kg [6]: 83%; inhibition at 5 mg/kg [7]: 3%; inhibition at 5 mg/kg [8]: 2%; inhibition at 5 mg/kg [9]: 5%
12 | OCCn1nnc(-c2ccccc2)n1 | > 100 µM | 89 µM | 
13 | OCCn1nnc(-c2ccc(Cl)cc2)n1 | 66 µM | 38 µM | 
14 | Cc1ccc(COc2ccc(-c3nnn(CCO)n3)cc2)cc1 | > 100 µM |  | 
15 | Cc1ccc(COc2ccc(-c3nnn(CCC#N)n3)cc2)cc1 | > 100 µM |  | 
16 | COc1cccc(COc2ccc(-c3nnn(CCC#N)n3)cc2)c1 | > 100 µM |  | 
17 | OCCn1nnc(-c2ccc(OCc3ccccc3Cl)cc2)n1 |  | 9 µM | 
18 | COc1ccc(COc2ccc(-c3nnn(CCC#N)n3)cc2)cc1 | > 100 µM |  | 
19 | OCCn1nnc(-c2ccc(OCc3ccccc3I)cc2)n1 | > 100 µM | 0.35 µM | 
20 | OCCn1nnc(-c2ccc(OCc3ccc(F)cc3)cc2)n1 | > 100 µM |  | 
21 | Cc1ccccc1COc1ccc(-c2nnn(CCO)n2)cc1 | > 100 µM |  | Selectivity [3]: > 350

Row | SMILES | IC50 [1] | IC50 [4] | further results
22 | N#CCCn1nnc(-c2ccncc2)n1 | > 100 µM | 30 µM | 
23 | COc1ccc(-c2nnn(CCC#N)n2)cc1 | 16.6 µM | 37 µM | 
24 | N#CCCn1nnc(-c2ccc(OCc3ccccc3)cc2)n1 |  | 0.002 µM | inhibition at 5 mg/kg [5]: 24%; remaining activity at 0.001 µM [10]: 65%; remaining activity at 0.001 µM [11]: 85%; inhibition at 5 mg/kg [12]: 69%; inhibition at 5 mg/kg [13]: 0%; inhibition at 5 mg/kg [8]: 2%; inhibition at 5 mg/kg [14]: 12%; inhibition at 5 mg/kg [15]: 6%; remaining activity at 0.1 µM [16]: 12%; inhibition at 5 mg/kg [17]: 74%; remaining activity at 0.1 µM [18]: 54%; Selectivity [3]: 37000; inhibition at 5 mg/kg [19]: 76%
25 | OCCn1nnc(-c2ccc(OCc3cccc(Cl)c3)cc2)n1 | 58 µM | 0.2 µM | inhibition at 5 mg/kg [12]: 55%; inhibition at 5 mg/kg [13]: 14%; inhibition at 5 mg/kg [14]: 15%; remaining activity at 0.1 µM [20]: 25%; inhibition at 5 mg/kg [15]: 15%; inhibition at 5 mg/kg [17]: 71%; Selectivity [3]: 290; inhibition at 5 mg/kg [19]: 69%; remaining activity at 0.1 µM [21]: 109%
26 | OCCCn1nnc(-c2ccc(-c3ccccc3)cc2)n1 | 4.6 µM | 1.36 µM | 
27 | OCCCCn1nnc(-c2ccc(-c3ccccc3)cc2)n1 | 13 µM | 9.4 µM | 
28 | COc1ccc(COc2ccc(-c3nnn(CCO)n3)cc2)cc1 | > 100 µM |  | 
29 | N#CCCn1nc(-c2ccc(OCc3ccccc3)cc2)oc1=O |  |  | IC50 [2]: 0.0046 µM
30 | COc1ccc(-c2nnn(CCO)n2)cc1 | 46 µM | > 100 µM | 
31 | COc1ccc2c3c([nH]c2c1)C(C)=NCC3 [HARMALINE] | 0.012 µM | 150 µM | Selectivity [3]: 5
32 | OCCn1nnc(-c2ccc(OCc3ccccc3)cc2)n1 | 64 µM | 0.03 µM | inhibition at 5 mg/kg [12]: 63%; inhibition at 5 mg/kg [13]: 4%; inhibition at 5 mg/kg [14]: 4%; remaining activity at 0.1 µM [20]: 19%; inhibition at 5 mg/kg [15]: 5%; inhibition at 5 mg/kg [17]: 84%; Selectivity [3]: 2100; inhibition at 5 mg/kg [19]: 84%; remaining activity at 0.1 µM [21]: 107%
33 | N#CCCn1nnc(-c2ccc(-c3ccccc3)cc2)n1 |  | 0.84 µM | 
34 | N#CCCn1nnc(-c2ccc(Cl)cc2)n1 | 6.5 µM | 3.6 µM | 
35 | N#CCCn1nnc(-c2ccc(OCc3ccccc3I)cc2)n1 | > 100 µM | > 270 µM | 
36 | N#CCCn1nnc(-c2ccccc2)n1 | 54 µM | > 100 µM | 
37 | N#CCCn1nnc(-c2ccc(OCc3cccc(Cl)c3)cc2)n1 | > 100 µM | 0.1 µM | inhibition at 5 mg/kg [5]: 9%; remaining activity at 0.1 µM [22]: 15%; inhibition at 5 mg/kg [12]: 63%; inhibition at 5 mg/kg [13]: 8%; inhibition at 5 mg/kg [8]: 1%; remaining activity at 0.1 µM [23]: 87%; inhibition at 5 mg/kg [14]: 18%; inhibition at 5 mg/kg [15]: 13%; remaining activity at 0.001 µM [24]: 95%; inhibition at 5 mg/kg [17]: 81%; Selectivity [3]: > 1000; remaining activity at 0.001 µM [25]: 69%; inhibition at 5 mg/kg [19]: 72%
38 | N#CCCn1nnc(-c2ccc(OCc3ccc(Cl)cc3)cc2)n1 | > 100 µM | 0.08 µM | 
39 | N#CCCn1nnc(-c2ccc(OCc3ccccc3Cl)cc2)n1 | > 100 µM | 0.03 µM | 
40 | OCCn1nnc(-c2ccncc2)n1 | > 100 µM | > 100 µM | 
41 | Cc1cccc(COc2ccc(-c3nnn(CCC#N)n3)cc2)c1 | > 100 µM |  | 
42 | N#CCCn1nnc(-c2ccc(OCc3ccc(F)cc3)cc2)n1 | > 100 µM |  | 

— ChEMBL document CHEMBL1128201, “Selective and potent monoamine oxidase type B inhibitors: 2-substituted 5-aryltetrazole derivatives” (J Med Chem, 1995)
